Each structure is given as a SMILES string.

These results are taken from patent publication US20140140962A1, “VIRUSES MODIFIED WITH UNNATURAL MOIETIES AND METHODS OF USE THEREOF” (priority 2011, published 2014).

One data set has as its system HEK 293 cells. Briefly: Plaque forming assay (infectivity). It counts as cell-based. Conditions: inferred from plaque assays, even at high concentration. As to the method: Dulbecco's modified Eagle's medium (DMEM), RPMI 1640, penicillin/streptomycin and 0.5% trypsin-EDTA were purchased from GIBCO (Grand Island, N.Y.). RPMI 1640 minus folic acid was obtained from Sigma. Fetal calf serum (FCS) and bovine calf serum (BCS) was purchased from HyClone (Logan, Utah). 293 cells were maintained in DMEM supplemented with 10% BCS, 2 mM glutamine, 100 U/mL penicillin, 100 μg/mL streptomycin. 4T1 cells (ATCC) were maintained in RPMI 1640 medium containing 10% FCS, 2 mM L-glutamine, 100 U/mL penicillin, and 100 μg/mL streptomycin. For 4T1 cells grown without folate, RPMI 1640 minus folic acid was supplemented with 10% FCS, 0.3 mg/mL L-glutamine, 2 mg/mL sodium bicarbonate, 100 U/mL penicillin, 100 μg/mL streptomycin. All cells were maintained in 100×20 mm tissue culture dishes obtained from BD biosciences (Franklin Lakes, N.J.) at 37° C. and 5% CO2. HEK 293 cells in […] culture plates were infected with 400 μL of azide labeled virus particles at concentrations of 10^3 particles/mL. The plates were overlaid with complete media containing 2.8% bactoagar and 10% BCS. […] The plaques were counted within a day after the final overlay.
HEK 293 cells cultivated in 6 mL culture plates were infected with 400 μL of azide labeled virus particles at concentrations of 10^3 particles/ml. […] The plaques were counted within a day after the final overlay.

Data set [1] concerns cancer stem cell related genes (Oct4, Sox2, Nanog, and c-Myc). Particulars: 3 unrelated invasive colon cancer cell lines; cited from earlier work.
Data set [2] concerns drug resistant cancer cell lines. Particulars: cited from earlier work.

With `[N-]=[N+]=NCC[C@H](N)C(=O)O` [Aha, Azidohomoalanine], the “toxicity to the cells” value with HEK 293 cells is recorded as “not toxic to the cells”.
As to `CC(=O)O[C@@]12CO[C@@H]1C[C@H](O)[C@@]1(C)C(=O)[C@H](OC(=O)C3CC3)C3=C(C)[C@@H](OC(=O)[C@H](O)[C@H](C=C(C)C)NC(=O)OC(C)(C)C)C[C@@](O)([C@@H](OC(=O)c4ccccc4)[C@H]21)C3(C)C` [SB-T-1214], the “inhibition of cancer stem cell related genes” value in data set [1] is listed as “substantial inhibition”. In data set [2], the “cytotoxicity against drug resistant cancer cell lines” value was “significantly improved cytotoxicity”.
